Earlier results as cited in patent US20250136601A1 (priority 2022, published 2025).

What was measured:
[1] = tested on: depressive episodes associated with bipolar I or II disorder; settings: Calabrese et al. 2021; cited from earlier work
[2] = target: postsynaptic D2 receptor (Homo sapiens (Human), UniProt P14416); settings: postsynaptic D2 receptor antagonist; Li et al., J Med Chem 2014; cited from earlier work
postsynaptic D2 receptor, sequence (P14416 whole entry): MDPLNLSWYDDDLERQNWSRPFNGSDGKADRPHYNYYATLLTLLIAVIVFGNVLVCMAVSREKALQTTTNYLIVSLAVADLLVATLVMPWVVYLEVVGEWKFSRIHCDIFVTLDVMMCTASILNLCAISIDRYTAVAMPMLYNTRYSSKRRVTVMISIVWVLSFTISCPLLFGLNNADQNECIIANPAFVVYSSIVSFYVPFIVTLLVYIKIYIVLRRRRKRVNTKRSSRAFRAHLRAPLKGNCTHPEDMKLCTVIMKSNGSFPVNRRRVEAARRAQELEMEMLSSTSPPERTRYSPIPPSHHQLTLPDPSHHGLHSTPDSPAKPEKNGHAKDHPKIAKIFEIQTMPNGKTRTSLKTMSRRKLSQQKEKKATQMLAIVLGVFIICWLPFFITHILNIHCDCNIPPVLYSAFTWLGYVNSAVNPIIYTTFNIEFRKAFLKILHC

For CN1CCN2c3c(cccc31)[C@@H]1CN(CCCC(=O)c3ccc(F)cc3)CC[C@@H]12 [lumateperone, Lumateperone], the patient response rate [1] is listed as 51.1% and the Ki [2] is listed as 32 nM.
